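Following 48 hours of exposure in 96-well plates, responses at five concentrations were used to interpolate endpoints linearly. GI50 = concentration required for 50% inhibition of growth.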 Calls of active or inactive are those of the source. No stated cut-off is given here; in the data, active = GI50 up to about 1.1 µM and inactive = higher.

Among the test systems are A549; CAKI-1; COLO 205; DU-145; HCT-116; HCT-15; HT-29; IGROV-1; K562; KM12; MCF7; MDA-MB-231; MOLT-4; NCI-H226; OVCAR-4; SF-268; SR; SW-620; T47D; UACC-257.
What all share (experiment): NCI anticancer screen, dose series, 48 h

Turning to `COC(=O)/C=C/CCC#Cc1ccccc1C#CCC/C=C/C(=O)OC`, the GI50 with A549 is 15.3 µM (inactive); in the assay on CAKI-1 it was 2.88 µM (inactive); in the assay on COLO 205, 5.48 µM (inactive); in the assay with DU-145 it was 32 µM (inactive); in the assay on HCT-116, 3.48 µM (inactive); in the assay on HCT-15, 3.98 µM. For the same compound, the GI50 in the assay on HT-29 was 3.49 µM (inactive); in the assay on IGROV-1 it was 4.88 µM (inactive); in the assay on K562, 1.76 µM (inactive); with KM12, 4.98 µM (inactive); in the assay with MCF7 it was 6.41 µM (inactive); in the assay with MDA-MB-231, 20.1 µM (inactive). Further, the GI50 is 3.01 µM (inactive) in the assay with MOLT-4; 13.1 µM (inactive) in the assay with NCI-H226; 16.9 µM (inactive) in the assay with OVCAR-4; 9.82 µM (inactive) in the assay on SF-268; 3.43 µM (inactive) in the assay on SR; 4.89 µM (inactive) with SW-620. The GI50 with T47D is 4.07 µM (inactive); with UACC-257, 23.7 µM (inactive).
In the case of `C=C(C)[C@@H](O)[C@H](O)C[C@H](C)C1CC[C@]2(C)C1=CC[C@@H]1[C@@]3(C)CC[C@@H](OC(C)=O)C(C)(C)[C@@H]3C[C@@H](OC3OC(COC(C)=O)C(O)C(O)C3O)[C@]12C` (stereo not given in full), the GI50 in the assay with A549 was 3.48 µM (inactive); in the assay on CAKI-1, 3.52 µM (inactive); in the assay on COLO 205, 1.93 µM (inactive); in the assay with DU-145, 3.4 µM (inactive); in the assay with HCT-116, 2.27 µM (inactive); in the assay with HCT-15, 3.37 µM. The GI50 was 2.02 µM (inactive) in the assay with HT-29; 2.4 µM (inactive) in the assay on IGROV-1; 2.02 µM (inactive) with K562; 1.6 µM (inactive) with KM12; 2.96 µM (inactive) in the assay on MCF7; 2.21 µM (inactive) in the assay on MDA-MB-231. The GI50 with MOLT-4 is 2.17 µM (inactive); in the assay on NCI-H226, 3.05 µM (inactive); in the assay on OVCAR-4 it was 2.96 µM (inactive); in the assay on SF-268 it was 2.78 µM (inactive); with SR it was 1.99 µM (inactive); with SW-620 it was 3.34 µM (inactive). The GI50 was 2.48 µM (inactive) in the assay on T47D and 2.89 µM (inactive) with UACC-257.

The values above are taken from ChEMBL document CHEMBL1201862, “PubChem BioAssay data set” (2004).
